Experimental data from ChEMBL document CHEMBL4346657, “Anticancer activity, dual prooxidant/antioxidant effect and apoptosis induction profile of new bichalcophene-5-carboxamidines” (Eur J Med Chem, 2019).
Active and inactive are the calls of the source. No cut-off for these calls is given here.

Tests used:
PC-3 = experiment: Antiproliferative activity against human PC3 cells assessed as growth inhibition after 48 hrs by sulforhodamine B assay; format: functional; details: PC-3, 48 h
SN12C = experiment: Antiproliferative activity against human SN12C cells assessed as growth inhibition after 48 hrs by sulforhodamine B assay; format: functional
COLO 205 = experiment: Antiproliferative activity against human COLO205 cells assessed as growth inhibition after 48 hrs by sulforhodamine B assay; format: functional; details: COLO 205, 48 h
SF-268 = experiment: Antiproliferative activity against human SF268 cells assessed as growth inhibition after 48 hrs by sulforhodamine B assay; format: functional; details: SF-268, 48 h
NCI-H460 = experiment: Antiproliferative activity against human NCI-H460 cells assessed as growth inhibition after 48 hrs by sulforhodamine B assay; format: functional; details: NCI-H460, 48 h
RXF 393 = experiment: Antiproliferative activity against human RXF393 cells assessed as growth inhibition after 48 hrs by sulforhodamine B assay; format: functional; details: RXF 393, 48 h
BT-549 = experiment: Antiproliferative activity against human BT549 cells assessed as growth inhibition after 48 hrs by sulforhodamine B assay; format: functional; details: BT-549, 48 h
OVCAR-5 = experiment: Antiproliferative activity against human OVCAR5 cells assessed as growth inhibition after 48 hrs by sulforhodamine B assay; format: functional; details: OVCAR-5, 48 h
[1] = Antioxidant activity assessed as ABTS radical scavenging activity by spectrophotometric analysis relative to control; format: functional; design: concentration or dose not given beside the values; details: dose or concentration not given here
OVCAR-4 = experiment: Antiproliferative activity against human OVCAR4 cells assessed as growth inhibition after 48 hrs by sulforhodamine B assay; format: functional; details: OVCAR-4, 48 h
SNB-75 = experiment: Antiproliferative activity against human SNB75 cells assessed as growth inhibition after 48 hrs by sulforhodamine B assay; format: functional; details: SNB-75, 48 h
NCI-H23 = experiment: Antiproliferative activity against human NCI-H23 cells assessed as growth inhibition after 48 hrs by sulforhodamine B assay; format: functional; details: NCI-H23, 48 h
HCT-116 [2] = experiment: […] in CDK1 mRNA expression in human HCT116 cells at 100 nM after 6 hrs hrs by SYBR green dye-based qRT-PCR analysis relative to control; format: functional
CAKI-1 = experiment: Antiproliferative activity against human CAKI-1 cells assessed as growth inhibition after 48 hrs by sulforhodamine B assay; format: functional; details: CAKI-1, 48 h
MDA-MB-468 = experiment: Antiproliferative activity against human MDA-MB-468 cells assessed as growth inhibition after 48 hrs by sulforhodamine B assay; format: functional; details: MDA-MB-468, 48 h
OVCAR-8 = experiment: Antiproliferative activity against human OVCAR8 cells assessed as growth inhibition after 48 hrs by sulforhodamine B assay; format: functional; details: OVCAR-8, 48 h
HCT-116 [3] = experiment: Induction of apoptosis in human HCT116 cells assessed as increase in p53 mRNA expression at 100 nM after 6 hrs hrs by SYBR green dye-based qRT-PCR analysis relative to control; format: functional
[4] = Antioxidant activity assessed as DPPH radical scavenging activity incubated in dark for 30 mins by spectrophotometric method relative to control; format: functional; design: concentration or dose not given beside the values
LOX IMVI = experiment: Antiproliferative activity against human LOXIMVI cells assessed as growth inhibition after 48 hrs by sulforhodamine B assay; format: functional
HCT-116 [5] = experiment: Induction of apoptosis in human HCT116 cells assessed as increase in caspase 3 mRNA expression at 100 nM after 6 hrs hrs by SYBR green dye-based qRT-PCR analysis relative to control; format: functional
HOP-62 = experiment: Antiproliferative activity against human HOP62 cells assessed as growth inhibition after 48 hrs by sulforhodamine B assay; format: functional; details: HOP-62, 48 h
786-0 = experiment: Antiproliferative activity against human 786-0 cells assessed as growth inhibition after 48 hrs by sulforhodamine B assay; format: functional; details: 786-0, 48 h
MOLT-4 = experiment: Antiproliferative activity against human MOLT4 cells assessed as growth inhibition after 48 hrs by sulforhodamine B assay; format: functional; details: MOLT-4, 48 h
TK-10 = experiment: Antiproliferative activity against human TK10 cells assessed as growth inhibition after 48 hrs by sulforhodamine B assay; format: functional; details: TK-10, 48 h
UO-31 = experiment: Antiproliferative activity against human UO31 cells assessed as growth inhibition after 48 hrs by sulforhodamine B assay; format: functional; details: UO-31, 48 h
MDA-MB-435 = experiment: Antiproliferative activity against human MDA-MB-435 cells assessed as growth inhibition after 48 hrs by sulforhodamine B assay; format: functional; details: MDA-MB-435, 48 h
OVCAR-3 = experiment: Antiproliferative activity against human OVCAR3 cells assessed as growth inhibition after 48 hrs by sulforhodamine B assay; format: functional; details: OVCAR-3, 48 h
HCT-15 = experiment: Antiproliferative activity against human HCT15 cells assessed as growth inhibition after 48 hrs by sulforhodamine B assay; format: functional; details: HCT-15, 48 h
[6] = Haemolytic activity in human erythrocytes assessed as induction of hemolysis at 10 mM after 30 mins relative to H202; format: cell-based, Erythrocyte; details: read-out: Activity
MCF7 = experiment: Antiproliferative activity against human MCF7 cells assessed as growth inhibition after 48 hrs by sulforhodamine B assay; format: functional; details: MCF7, 48 h
DU-145 = experiment: Antiproliferative activity against human DU145 cells assessed as growth inhibition after 48 hrs by sulforhodamine B assay; format: functional; details: DU-145, 48 h
SF-539 = experiment: Antiproliferative activity against human SF539 cells assessed as growth inhibition after 48 hrs by sulforhodamine B assay; format: functional; details: SF-539, 48 h
A549 = experiment: Antiproliferative activity against human A549/ATCC cells assessed as growth inhibition after 48 hrs by sulforhodamine B assay; format: functional; details: A549, 48 h
[7] = Haemolytic activity in human erythrocytes assessed as induction of hemolysis at 5 mM after 30 mins relative to H202; format: cell-based, Erythrocyte; details: read-out: Activity
Malme-3M = experiment: Antiproliferative activity against human MALME-3M cells assessed as growth inhibition after 48 hrs by sulforhodamine B assay; format: functional
SK-OV-3 = experiment: Antiproliferative activity against human SKOV3 cells assessed as growth inhibition after 48 hrs by sulforhodamine B assay; format: functional; details: SK-OV-3, 48 h
[8] = Pro-oxidant activity assessed as increase in bleomycin-Fe2+ induced calf thymus DNA damage at 2 mM after 1 hr by thiobarbituric acid based absorbance analysis
UACC-257 = experiment: Antiproliferative activity against human UACC257 cells assessed as growth inhibition after 48 hrs by sulforhodamine B assay; format: functional; details: UACC-257, 48 h
[9] = Antioxidant activity assessed as hydroxyl radical scavenging activity after 1 hr by salicylic acid-based Fenton reaction assay; format: functional
MDA-MB-231 = experiment: Antiproliferative activity against human MDA-MB-231/ATCC cells assessed as growth inhibition after 48 hrs by sulforhodamine B assay; format: functional; details: MDA-MB-231, 48 h
EKVX = experiment: Antiproliferative activity against human EKVX cells assessed as growth inhibition after 48 hrs by sulforhodamine B assay; format: functional
[10] = tested on: Panel NCI-60 (60 carcinoma cell lines); experiment: Antiproliferative activity against human NCI60 cells assessed as growth inhibition after 48 hrs by sulforhodamine B assay; format: functional

Structure (SMILES): N=C(N)c1ccc(-c2ccc(-c3ccc(Cl)cc3)o2)o1
- GI50 (PC-3): 1810 nM
- GI50 (SN12C): 1900 nM
- GI50 (COLO 205): 1830 nM
- GI50 (SF-268): 1750 nM
- GI50 (NCI-H460): 1890 nM
- GI50 (RXF 393): 1820 nM
- GI50 (BT-549): 5920 nM
- GI50 (OVCAR-5): 1820 nM
- inhibition [1]: 20.4%
- GI50 (OVCAR-4): 1800 nM
- GI50 (SNB-75): 1500 nM
- GI50 (NCI-H23): 1690 nM
- fold change (FC) (HCT-116 [2]): 0.93
- GI50 (CAKI-1): 1690 nM
- GI50 (MDA-MB-468): 2190 nM
- GI50 (OVCAR-8): 2020 nM
- fold change (FC) (HCT-116 [3]): 1.09
- inhibition [4]: 17.5%
- GI50 (LOX IMVI): 1760 nM
- fold change (FC) (HCT-116 [5]): 3.55
- GI50 (HOP-62): 1650 nM
- GI50 (786-0): 1850 nM
- GI50 (MOLT-4): 1660 nM
- GI50 (TK-10): 2070 nM
- GI50 (UO-31): 1750 nM
- GI50 (MDA-MB-435): 1380 nM
- GI50 (OVCAR-3): 1830 nM
- GI50 (HCT-15): 1520 nM
- hemolysis at 0.5 h, 10000 µM [6]: 97.3%
- GI50 (MCF7): 1270 nM
- GI50 (DU-145): 1750 nM
- GI50 (SF-539): 1710 nM
- GI50 (A549): 1980 nM
- hemolysis at 0.5 h, 5000 µM [7]: 70.7%
- GI50 (Malme-3M): 1910 nM
- GI50 (SK-OV-3): 1790 nM
- Activity [8]: Active
- GI50 (UACC-257): 1990 nM
- Activity [9]: Active
- GI50 (MDA-MB-231): 2010 nM
- GI50 (EKVX): 1500 nM
- GI50 [10]: 1810 nM
- LC50 [10]: 12600 nM
- TGI [10]: 3720 nM

Structure (SMILES): COc1ccc2cc(-c3ccc(-c4ccc(C(=N)N)s4)s3)ccc2c1
- GI50 (PC-3): 2130 nM
- GI50 (SN12C): 2120 nM
- GI50 (COLO 205): 2040 nM
- GI50 (SF-268): 2100 nM
- GI50 (NCI-H460): 1940 nM
- GI50 (RXF 393): 7220 nM
- GI50 (BT-549): 17600 nM
- GI50 (OVCAR-5): 2110 nM
- inhibition [1]: 57.4%
- GI50 (OVCAR-4): 1820 nM
- GI50 (SNB-75): 10400 nM
- GI50 (NCI-H23): 3220 nM
- fold change (FC) (HCT-116 [2]): 0.93
- GI50 (CAKI-1): 8290 nM
- GI50 (MDA-MB-468): 2340 nM
- GI50 (OVCAR-8): 2340 nM
- fold change (FC) (HCT-116 [3]): 1.03
- inhibition [4]: 43%
- GI50 (LOX IMVI): 1950 nM
- fold change (FC) (HCT-116 [5]): 2.44
- GI50 (HOP-62): 1780 nM
- GI50 (786-0): 2040 nM
- GI50 (MOLT-4): 2170 nM
- GI50 (TK-10): 14200 nM
- GI50 (UO-31): 2880 nM
- GI50 (MDA-MB-435): 2010 nM
- GI50 (OVCAR-3): 2420 nM
- GI50 (HCT-15): 1890 nM
- hemolysis at 0.5 h, 10000 µM [6]: 18.7%
- GI50 (MCF7): 1910 nM
- GI50 (DU-145): 1700 nM
- GI50 (SF-539): 3910 nM
- GI50 (A549): 2220 nM
- hemolysis at 0.5 h, 5000 µM [7]: 11.3%
- GI50 (Malme-3M): 3320 nM
- GI50 (SK-OV-3): 17900 nM
- Activity [8]: Active
- GI50 (UACC-257): 19600 nM
- Activity [9]: Active
- GI50 (MDA-MB-231): 2460 nM
- GI50 (EKVX): 2140 nM
- GI50 [10]: 3090 nM
- LC50 [10]: 38000 nM
- TGI [10]: 7940 nM

Structure (SMILES): N=C(N)c1ccc(-c2ccc(-c3ccccc3)o2)o1
- GI50 (PC-3): 2640 nM
- GI50 (SN12C): 3120 nM
- GI50 (COLO 205): 1780 nM
- GI50 (SF-268): 2980 nM
- GI50 (NCI-H460): 2450 nM
- GI50 (RXF 393): 2330 nM
- GI50 (BT-549): 4130 nM
- GI50 (OVCAR-5): 2700 nM
- inhibition [1]: 41.3%
- GI50 (OVCAR-4): 3480 nM
- GI50 (SNB-75): 1600 nM
- GI50 (NCI-H23): 5780 nM
- fold change (FC) (HCT-116 [2]): 0.97
- GI50 (CAKI-1): 3400 nM
- GI50 (MDA-MB-468): 1640 nM
- GI50 (OVCAR-8): 4000 nM
- fold change (FC) (HCT-116 [3]): 0.95
- inhibition [4]: 30.9%
- GI50 (LOX IMVI): 1700 nM
- fold change (FC) (HCT-116 [5]): 2.33
- GI50 (HOP-62): 3590 nM
- GI50 (786-0): 1740 nM
- GI50 (MOLT-4): 3310 nM
- GI50 (TK-10): 3320 nM
- GI50 (UO-31): 1540 nM
- GI50 (MDA-MB-435): 990 nM
- GI50 (OVCAR-3): 3130 nM
- GI50 (HCT-15): 1160 nM
- hemolysis at 0.5 h, 10000 µM [6]: 66.7%
- GI50 (MCF7): 1680 nM
- GI50 (DU-145): 3300 nM
- GI50 (SF-539): 1950 nM
- GI50 (A549): 3550 nM
- hemolysis at 0.5 h, 5000 µM [7]: 30.1%
- GI50 (Malme-3M): 1750 nM
- GI50 (SK-OV-3): 4300 nM
- Activity [8]: Active
- GI50 (UACC-257): 2520 nM
- Activity [9]: Active
- GI50 (MDA-MB-231): 2040 nM
- GI50 (EKVX): 2340 nM
- GI50 [10]: 2400 nM
- LC50 [10]: 22400 nM
- TGI [10]: 6910 nM
